The record followed here is the supplement of paper PMC10949913.

Assay in all cases: area under concentration-response curve (viability) (AUC (a.u.)); higher = less active
What all share (conditions): 48 h

In one assay the test system is NCI-H295R. In outline: (§1)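 Three adrenocortical carcinoma cell lines were seeded at 500–1,000 cells/well in 5 µL medium in 1,536-well plates. 23 nL of each MIPE 5.0 library compound was added at 11 concentrations. After 48 h (per the protocol name), CellTiter-Glo was added for 15 minutes at room temperature and luminescence was read. Signals were normalised per plate to vehicle and empty-well controls. AC50 and area under the curve came from fitted concentration-response curves, keeping only inhibitory or non-responding curve classes.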

For a further assay, the system named is CU-ACC2. In short, it runs like this: as §1
In another assay the test system is CU-ACC1. In short, it runs like this: as §1

For `C[S+]([O-])(=O)C1=CC=C(C=C1)C/2=C(/C(=O)OC2)C3=CC=CC=C3`, the entries for the “area under concentration-response curve” value in the assay on NCI-H295R, in the assay with CU-ACC2 and in the assay on CU-ACC1 were 424, 467 and 407, respectively.

With `COc1cccc(Nc2c(C(N)=O)cnc3c(C)cc([S+](=O)([O-])c4cccc(C(=O)N(C)C)c4)cc23)c1`, the entries for the “area under concentration-response curve” value in the assay with NCI-H295R, in the assay on CU-ACC2 and in the assay with CU-ACC1 were 545, 578 and 466, respectively.

On to `Cc1ccccc1C(C(=O)NC1CCCCC1)N(C(=O)Cn1ccnc1C)c1cccc(F)c1` (stereo not drawn), for which the “area under concentration-response curve” value with NCI-H295R was 539; with CU-ACC2, 593; in the assay on CU-ACC1 it was 519.

Turning to `NC(=O)c1cnc(-c2ccc(C3(N)CCC3)cc2)c(-c2ccccc2)c1`, the “area under concentration-response curve” value was found to be 554 in the assay with NCI-H295R, 648 in the assay on CU-ACC2 and 537 with CU-ACC1.

Consider `O=C1C[C@@H](c2ccc(O)cc2)Oc2cc(O)cc(O)c21`, for which the “area under concentration-response curve” value turned out to be 485 in the assay with NCI-H295R, 484 in the assay on CU-ACC2 and 345 in the assay on CU-ACC1.

With `Cc1cn2cc(C(=O)N(C)CCO)cc(N[C@@H]3CCOc4cccc(C)c43)c2n1`, the figures for the “area under concentration-response curve” value in the assay with NCI-H295R, in the assay on CU-ACC2 and with CU-ACC1 were 581, 620 and 534, respectively.

Consider `CC(C)C[C@H](NC(=O)[C@H](Cc1ccccc1)NC(=O)OCc1ccccc1)C(=O)C=O`, for which the “area under concentration-response curve” value was 504 in the assay on NCI-H295R, 531 in the assay on CU-ACC2 and 456 in the assay with CU-ACC1.

With `CCOC(=O)\C1=C\[C@@H](OC(CC)CC)[C@H](NC(C)=O)[C@@H](N)C1`, the “area under concentration-response curve” value in the assay with NCI-H295R is 547; with CU-ACC2, 602; in the assay on CU-ACC1 it was 508.

Turning to `Cc1ccc(-c2nc(N)nc3c2nnn3Cc2cccc(CO[C@H]3CCOC3)n2)o1`, the results for the “area under concentration-response curve” value in the assay with NCI-H295R, with CU-ACC2 and in the assay with CU-ACC1 were 561, 569 and 520, respectively.

Consider `CC1(C)[C@@H](O[C@H]2O[C@H](C(=O)O)[C@@H](O)[C@H](O)[C@H]2O[C@@H]2O[C@H](C(=O)O)[C@@H](O)[C@H](O)[C@H]2O)CC[C@]2(C)[C@H]3C(=O)C=C4[C@@H]5C[C@@](C)(C(=O)O)CC[C@]5(C)CC[C@@]4(C)[C@]3(C)CC[C@@H]12`, for which the “area under concentration-response curve” value came out at 567 with NCI-H295R, 522 with CU-ACC2 and 541 in the assay with CU-ACC1.

`CNc1nc(Nc2cnn([C@H]3CCN(C4COC4)C[C@@H]3F)c2Cl)ncc1C(F)(F)F`: the figures for the “area under concentration-response curve” value in the assay with NCI-H295R, in the assay with CU-ACC2 and in the assay with CU-ACC1 were 566, 604 and 562, respectively.

For the molecule `S=C1N\C=N/C2=C1[NH]C=N2`, the “area under concentration-response curve” value is 495 with NCI-H295R, 518 with CU-ACC2 and 438 in the assay with CU-ACC1.

For the molecule `COc1ccc(CCN2CCN(CCCc3ccccc3)CC2)cc1OC`, the “area under concentration-response curve” value in the assay with NCI-H295R came out at 562; with CU-ACC2 it was 627; in the assay on CU-ACC1 it was 541.

Turning to `Cc1nnc(C(C)C)n1C1CC2CCC(C1)N2CC[C@H](NC(=O)C1CCC(F)(F)CC1)c1ccccc1` (stereo partly drawn), the “area under concentration-response curve” value amounted to 559 in the assay with NCI-H295R, 533 with CU-ACC2 and 561 with CU-ACC1.

Consider `NCCCC(O)(P(=O)([O-])O)P(=O)(O)O`, for which the results for the “area under concentration-response curve” value in the assay with NCI-H295R, in the assay on CU-ACC2 and with CU-ACC1 were 472, 529 and 511, respectively.

For `CC(C)(C)c1nc(-c2cccc(N[S+](=O)([O-])c3c(F)cccc3F)c2F)c(-c2ccnc(N)n2)s1`, the results for the “area under concentration-response curve” value with NCI-H295R, in the assay on CU-ACC2 and in the assay with CU-ACC1 were 542, 608 and 542, respectively.

With `CN1C(=O)CC[S+](=O)([O-])C1c1ccc(Cl)cc1` (stereo not drawn), the “area under concentration-response curve” value is 572 with NCI-H295R, 534 in the assay with CU-ACC2 and 553 in the assay on CU-ACC1.

Take `O=C(CBr)N1CC([N+](=O)[O-])([N+](=O)[O-])C1`: the “area under concentration-response curve” value in the assay on NCI-H295R turned out to be 439; in the assay on CU-ACC2 it was 464; in the assay on CU-ACC1, 454.

`CCC[C@H](N[C@@H](C)C(=O)N1[C@H](C(=O)O)C[C@@H]2CCCC[C@@H]21)C(=O)OCC`: the “area under concentration-response curve” value with NCI-H295R worked out at 548; with CU-ACC2 it was 589; in the assay on CU-ACC1, 531.

In the case of `CNC(=O)[C@H](Cc1ccccc1)NC(=O)[C@H](CC(C)C)[C@H](CSc1cccs1)C(=O)NO`, the figures for the “area under concentration-response curve” value in the assay with NCI-H295R, with CU-ACC2 and in the assay with CU-ACC1 were 560, 596 and 480, respectively.

As to `C[C@H]1CC[C@H](n2c3cnccc3c3cnc(Nc4ccc5c(n4)CCN(C(=O)CO)C5)nc32)CC1`, the “area under concentration-response curve” value with NCI-H295R was 596; in the assay on CU-ACC2, 622; in the assay with CU-ACC1, 601.

As to `CC(=O)N[C@H]1[C@H](O[C@@H]2c3ccc(c(Cl)c3)Oc3cc4cc(c3O[C@@H]3O[C@H](CO)[C@@H](O)[C@H](O)[C@H]3NC(=O)CCCCCCCC(C)C)Oc3ccc(cc3Cl)C[C@H]3NC(=O)[C@H](N)c5ccc(O)c(c5)Oc5cc(O)cc(c5)[C@H](NC3=O)C(=O)N[C@H]4C(=O)N[C@H]3C(=O)N[C@@H]2C(=O)N[C@@H](C(=O)O)c2cc(O)cc(O[C@H]4O[C@H](CO)[C@@H](O)[C@H](O)[C@@H]4O)c2-c2cc3ccc2O)O[C@H](CO)[C@@H](O)[C@@H]1O`, the “area under concentration-response curve” value with NCI-H295R stood at 551; in the assay with CU-ACC2, 593; in the assay with CU-ACC1, 492.

Turning to `Cc1nc(NC(=O)N2CCC[C@H]2C(N)=O)sc1-c1csc(C(C)(C)C)n1`, the results for the “area under concentration-response curve” value in the assay on NCI-H295R, in the assay with CU-ACC2 and with CU-ACC1 were 377, 445 and 414, respectively.

With `CSCC[C@H](NC(=O)[C@H](Cc1c[nH]c2ccccc12)NC(=O)CCNC(=O)OC(C)(C)C)C(=O)N[C@@H](CC(=O)O)C(=O)N[C@@H](Cc1ccccc1)C(N)=O`, the “area under concentration-response curve” value was determined as 545 in the assay on NCI-H295R, 579 in the assay with CU-ACC2 and 495 with CU-ACC1.

For the molecule `COc1ccc2c(c1)CC[C@@H](CN(C)CC(=O)O)[C@H]2c1ccccc1`, the “area under concentration-response curve” value came out at 464 with NCI-H295R, 514 with CU-ACC2 and 487 in the assay with CU-ACC1.

Regarding `CC(C)(Sc1cc(C(C)(C)C)c(O)c(C(C)(C)C)c1)Sc1cc(C(C)(C)C)c(O)c(C(C)(C)C)c1`, the “area under concentration-response curve” value with NCI-H295R was found to be 601; in the assay on CU-ACC2, 652; in the assay on CU-ACC1 it was 550.

With `CC[C@H](CC[C@@H](C)[C@H]1CC[C@H]2[C@@H]3C\C=C/4C[C@@H](O)CC[C@]4(C)[C@H]3CC[C@]12C)C(C)C`, the “area under concentration-response curve” value amounted to 421 in the assay with NCI-H295R, 396 with CU-ACC2 and 413 in the assay on CU-ACC1.

On to `COc1ccc2c(C(=S)N(C)CC(=O)O)cccc2c1C(F)(F)F`, for which the results for the “area under concentration-response curve” value with NCI-H295R, with CU-ACC2 and in the assay on CU-ACC1 were 481, 535 and 490, respectively.

As to `CN(Cc1ccccc1)C(=O)c1ccc([S+](=O)([O-])Nc2ccccc2)cc1`, the “area under concentration-response curve” value with NCI-H295R was 519; in the assay on CU-ACC2, 550; in the assay on CU-ACC1, 491.

As to `O=C1NC(=O)/C(=C/c2cccc(C(F)(F)F)c2)S1`, the “area under concentration-response curve” value with NCI-H295R was determined as 449; with CU-ACC2, 511; with CU-ACC1 it was 463.

As to `CCC(=O)O[C@@]1(CC[C@H]2[C@@H]3CCC/4=C/C(=O)CC[C@]4(C)[C@H]3CC[C@]12C)C(=O)CO`, the “area under concentration-response curve” value in the assay on NCI-H295R turned out to be 518; in the assay with CU-ACC2, 585; in the assay on CU-ACC1 it was 508.

As for `CC1(N)CCN(c2cnc(-c3cccc(Cl)c3Cl)c(N)n2)CC1`, the entries for the “area under concentration-response curve” value in the assay with NCI-H295R, with CU-ACC2 and in the assay on CU-ACC1 were 577, 627 and 543, respectively.

On to `Cc1ccc(C(=O)c2cc(O)c(O)c([N+](=O)[O-])c2)cc1`, for which the results for the “area under concentration-response curve” value in the assay with NCI-H295R, in the assay with CU-ACC2 and in the assay with CU-ACC1 were 598, 645 and 551, respectively.

In the case of `C/C1=C/C[C@@H](/C(C)=C/c2csc(C)n2)OC(=O)C[C@H](O)C(C)(C)C(=O)[C@H](C)[C@@H](O)[C@@H](C)CCC1`, the “area under concentration-response curve” value stood at 426 in the assay on NCI-H295R, 567 in the assay on CU-ACC2 and 480 with CU-ACC1.

As for `COc1cc(NC(=O)c2ccc(-c3ccc(Cl)cc3)o2)cc(OC)c1`, the “area under concentration-response curve” value stood at 536 with NCI-H295R, 562 in the assay with CU-ACC2 and 469 in the assay on CU-ACC1.

`C[S+](=O)([O-])N(Cc1ccco1)CC(O)Cn1c2ccccc2c2ccccc21` (stereo not drawn): the “area under concentration-response curve” value worked out at 473 with NCI-H295R, 515 with CU-ACC2 and 477 in the assay on CU-ACC1.
